Here are results for 54 compounds from patent publication US7767815B2, “Fused tricyclic mGluR1 antagonists as therapeutic agents” (Schering Corporation, priority 2005, dated 2010).

Read-outs that look alike come from different tables or passages of the source.

By IC50 is commonly meant the concentration at which inhibition is half-maximal.

The experiment has as its target T1, hmGluR1 receptor (Homo sapiens, UniProt Q13255).
T1 construct: expressed in transfected cells; host or cells: CHO
Put plainly: mGluR1 IC50 determination, FLIPR intracellular calcium mobilization against Quisqualate. In kind it is cell-based. To be noted: CHO cell line stably expressing hmGluR1, against Quisqualate 1 μM (EC80), compounds added 10 minutes before. On the procedure: A CHO cell line stably expressing hmGluR1 receptor was established. One day prior to assay, cells were split in growth media at concentration of 50,000 cells/well in a volume of 100 μl and seeded into black clear-bottom 96-well plates. After two to six hours, when cells were well attached to the plate, growth medium was replaced with assay medium (100 μL) consisting of DMEM high glucose, supplemented with GPT (1 U/mL) and sodium pyruvate, 1 mM. Following overnight incubation, medium was discarded and cells were loaded for 2 hours with dye from the Calcium 3 Assay Reagent Kit (Molecular Devices, # R8033), prepared according to manufacturers' instructions. […] Test compounds were added 10 minutes before Quisqualate.
(A change in cytosolic calcium serves as a functional read-out for many receptors and channels.)

T1 sequence (Q13255 19-1194): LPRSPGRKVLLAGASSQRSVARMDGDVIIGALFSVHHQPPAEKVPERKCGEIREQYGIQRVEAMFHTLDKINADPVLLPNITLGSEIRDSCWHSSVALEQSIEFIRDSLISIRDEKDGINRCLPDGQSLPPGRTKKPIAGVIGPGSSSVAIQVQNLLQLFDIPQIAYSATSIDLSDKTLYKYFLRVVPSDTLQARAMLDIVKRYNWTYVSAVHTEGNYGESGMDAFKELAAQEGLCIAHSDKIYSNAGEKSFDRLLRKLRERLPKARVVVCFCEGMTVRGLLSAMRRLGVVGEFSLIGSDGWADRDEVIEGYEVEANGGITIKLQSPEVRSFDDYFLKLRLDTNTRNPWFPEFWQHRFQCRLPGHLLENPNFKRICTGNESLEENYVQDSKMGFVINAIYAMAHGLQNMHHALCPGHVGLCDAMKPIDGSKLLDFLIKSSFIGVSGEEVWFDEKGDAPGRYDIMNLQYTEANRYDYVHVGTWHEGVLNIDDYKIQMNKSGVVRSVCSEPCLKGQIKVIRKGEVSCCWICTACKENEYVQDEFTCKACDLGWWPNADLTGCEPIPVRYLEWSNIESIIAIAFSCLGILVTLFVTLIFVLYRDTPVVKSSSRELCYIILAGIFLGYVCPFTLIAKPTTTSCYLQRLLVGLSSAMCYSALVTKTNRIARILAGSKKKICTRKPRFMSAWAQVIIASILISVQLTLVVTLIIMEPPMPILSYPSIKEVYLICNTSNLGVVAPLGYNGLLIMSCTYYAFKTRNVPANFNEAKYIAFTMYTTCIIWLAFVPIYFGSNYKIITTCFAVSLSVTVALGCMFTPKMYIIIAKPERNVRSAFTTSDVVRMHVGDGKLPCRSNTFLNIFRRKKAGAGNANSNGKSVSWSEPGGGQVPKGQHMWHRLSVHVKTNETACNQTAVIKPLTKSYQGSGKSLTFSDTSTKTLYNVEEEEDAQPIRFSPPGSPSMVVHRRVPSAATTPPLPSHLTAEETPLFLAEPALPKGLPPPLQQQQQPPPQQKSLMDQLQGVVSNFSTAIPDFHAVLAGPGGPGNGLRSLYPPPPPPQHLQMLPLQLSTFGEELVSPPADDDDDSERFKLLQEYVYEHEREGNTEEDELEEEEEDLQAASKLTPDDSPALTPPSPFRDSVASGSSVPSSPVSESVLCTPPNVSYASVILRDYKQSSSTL

Take `Cc1ccc(-n2ccc3c(sc4nccc(NCC(F)(F)F)c43)c2=O)cc1` [19R]: the IC50 (read-out: mGluR1 IC50 rating) lay in the range of 0.02 to 0.1 µM.

Turning to `Cc1ccc(-n2ccc3c(sc4nccc(N)c43)c2=O)cc1` [19AC], for the setting “read-out: mGluR1 IC50 rating”, the IC50 was in the range of 0.02 to 0.1 µM.

`COc1ccnc2sc3c(=O)n(-c4ccccc4Cl)ccc3c12` [16U]: the IC50 (read-out: mGluR1 IC50 rating) was in the range of 0.02 to 0.1 µM.

In the case of `COc1ccc(-n2ccc3c(sc4nccc(NCCCCCO)c43)c2=O)cc1` [19AH], the IC50 (read-out: mGluR1 IC50 rating) fell in the range of 0.02 to 0.1 µM.

In the case of `COc1ccc(-n2ccc3c(sc4nccc(NCCCO)c43)c2=O)cc1` [19Y], where the note is “read-out: mGluR1 IC50 rating”, the IC50 is 0.02 to 0.1 µM.

For `COc1ccnc2sc3c(=O)n(-c4cccc(Cl)c4)ccc3c12` [16R], for the setting “read-out: mGluR1 IC50 rating”, the IC50 is below 0.02 µM.

Regarding `COc1ncnc2sc3c(=O)n(-c4ccc(C)cc4)ccc3c12` [23A], the IC50 (read-out: mGluR1 IC50 rating) was below 0.02 µM.

As for `CCNc1ccnc2sc3c(=O)n(-c4ccc(F)cc4)ccc3c12` [19AL], the IC50 (read-out: mGluR1 IC50 rating) was 0.02 to 0.1 µM.

Consider `O=c1c2sc3nccc(NC4CC4)c3c2ccn1-c1ccc(F)cc1` [19AM], for which, for the setting “read-out: mGluR1 IC50 rating”, the IC50 was in the range of 0.02 to 0.1 µM.

Take `COCCNc1ccnc2sc3c(=O)n(-c4ccc(C)cc4)ccc3c12` [19C]: the half-inhibitory concentration (IC50) (read-out: mGluR1 IC50 rating) fell in the range of 0.02 to 0.1 µM.

Consider `C#CCNc1ccnc2sc3c(=O)n(-c4ccc(OC)cc4)ccc3c12` [19X], for which the IC50 (read-out: mGluR1 IC50 rating) lay within 0.02 to 0.1 µM.

As for `COCCCNc1ccnc2sc3c(=O)n(-c4ccc(Cl)cc4)ccc3c12` [19H], the IC50 (read-out: mGluR1 IC50 rating) is 0.02 to 0.1 µM.

On to `COc1ccc(-n2ccc3c(sc4nccc(NC5CC5)c43)c2=O)c(F)c1` [19BH], for which, for the setting “read-out: mGluR1 IC50 rating”, the IC50 lay in the range of 0.02 to 0.1 µM.

For the compound `COCCCNc1ccnc2sc3c(=O)n(-c4ccc(OC)cc4)ccc3c12` [19W], the IC50 (read-out: mGluR1 IC50 rating) lay in the range of 0.02 to 0.1 µM.

For `COCCNc1ccnc2sc3c(=O)n(-c4ccc(O)cc4)ccc3c12` [19J], the IC50 (read-out: mGluR1 IC50 rating) was above 1 µM.

Take `O=c1c2sc3nccc(NC4CC4)c3c2ccn1-c1ccc2scnc2c1` [19AR]: the IC50 (read-out: mGluR1 IC50 rating) lay in the range of 0.02 to 0.1 µM.

Regarding `CCNc1ccnc2sc3c(=O)n(-c4ccc(OC)c(F)c4)ccc3c12` [19AU], under “read-out: mGluR1 IC50 rating”, the IC50 was below 0.02 µM.

Take `COc1ccc(-n2ccc3c(sc4ncnc(OC)c43)c2=O)cc1` [23B]: the IC50 (read-out: mGluR1 IC50 rating) was in the range of 0.1 to 1 µM.

For `COc1ccnc2sc3c(=O)n(-c4ccc5ncsc5c4)ccc3c12` [16F], the IC50 (read-out: mGluR1 IC50 rating) fell in the range of 0.02 to 0.1 µM.

In the case of `N#Cc1ccc(-n2ccc3c(sc4nccc(NC5CC5)c43)c2=O)cc1` [19BC], where the note is “read-out: mGluR1 IC50 rating”, the IC50 was in the range of 0.02 to 0.1 µM.

As to `CCNc1ccnc2sc3c(=O)n(-c4ccc5scnc5c4)ccc3c12` [19AQ], the IC50 (read-out: mGluR1 IC50 rating) lay within 0.02 to 0.1 µM.

On to `C#CCNc1ccnc2sc3c(=O)n(-c4ccc(OC)c(F)c4)ccc3c12` [19AO], for which the IC50 (read-out: mGluR1 IC50 rating) was 0.1 to 1 µM.

Take `C[C@@H](O)CNc1ccnc2sc3c(=O)n(-c4ccc(Cl)cc4)ccc3c12` [19E]: the IC50 (read-out: mGluR1 IC50 rating) lay in the range of 0.02 to 0.1 µM.

For `COc1ccnc2sc3c(=O)n(-c4ccc(C#N)cc4)ccc3c12` [16X], the IC50 (read-out: mGluR1 IC50 rating) was 0.02 to 0.1 µM.

For the compound `O=c1c2sc3nccc(O)c3c2ccn1-c1ccc(Cl)cc1` [17B], for the setting “read-out: mGluR1 IC50 rating”, the 50% inhibitory concentration (IC50) lay within 0.1 to 1 µM.

With `COc1ccnc2sc3c(=O)n(-c4ccc5scnc5c4)ccc3c12` [16G], the IC50 (read-out: mGluR1 IC50 rating) was below 0.02 µM.

Consider `COc1ccnc2sc3c(=O)n(-c4ccc(F)cc4)ccc3c12` [16H], for which the IC50 (read-out: mGluR1 IC50 rating) was below 0.02 µM.

`COc1ccnc2sc3c(=O)n(-c4ccc5c(c4)OCCO5)ccc3c12` [16P]: the IC50 (read-out: mGluR1 IC50 rating) lay within 0.02 to 0.1 µM.

As to `COc1ccnc2sc3c(=O)n(-c4cccc(C)c4)ccc3c12` [16T], the IC50 (read-out: mGluR1 IC50 rating) was below 0.02 µM.

As for `COc1ccnc2sc3c(=O)n(-c4ccc(Cl)cc4)ccc3c12` [16B], the IC50 is 0.0034 µM (read-out: mGluR1 IC50) and below 0.02 µM (read-out: mGluR1 IC50 rating).

Take `C#CCNc1ccnc2sc3c(=O)n(-c4ccc(F)cc4)ccc3c12` [19AN]: the IC50 (read-out: mGluR1 IC50 rating) lay in the range of 0.02 to 0.1 µM.

In the case of `CN(C)c1ccnc2sc3c(=O)n(-c4ccc(O)cc4)ccc3c12` [9H], where the note is “read-out: mGluR1 IC50 rating”, the IC50 is below 0.02 µM.

With `COc1ccc(-n2ccc3c(sc4nccc(N(C)N)c43)c2=O)cc1` [19U], the IC50 (read-out: mGluR1 IC50 rating) is below 0.02 µM.

For `CCNc1ccnc2sc3c(=O)n(-c4ccc(C#N)cc4)ccc3c12` [19BB], the IC50 (read-out: mGluR1 IC50 rating) was in the range of 0.02 to 0.1 µM.

Take `O=c1c2sc3nccc(NCC(F)(F)F)c3c2ccn1-c1ccc(Cl)cc1` [19I]: the IC50 (read-out: mGluR1 IC50 rating) lay within 0.02 to 0.1 µM.

With `COc1ccc(-n2ccc3c(sc4nccc(OC)c43)c2=O)cc1F` [16I], where the note is “read-out: mGluR1 IC50 rating”, the IC50 is below 0.02 µM.

As for `COc1ccnc2sc3c(=O)n(-c4ccc(Br)cc4)ccc3c12` [16E], the IC50 runs as follows: (read-out: mGluR1 IC50) 0.0048 µM; (read-out: mGluR1 IC50 rating) below 0.02 µM.

Consider `Cc1ccc(-n2ccc3c(sc4nccc(O)c43)c2=O)cc1` [17C], for which the IC50 (read-out: mGluR1 IC50 rating) was 0.1 to 1 µM.

For `COc1ccnc2sc3c(=O)n(-c4ccc5occc5c4)ccc3c12` [16Q], for the setting “read-out: mGluR1 IC50 rating”, the IC50 was below 0.02 µM.

As for `C#CCNc1ccnc2sc3c(=O)n(-c4ccc(C)cc4)ccc3c12` [19AG], the IC50 (read-out: mGluR1 IC50 rating) is below 0.02 µM.

`C#CCNc1ccnc2sc3c(=O)n(-c4ccc(Cl)cc4)ccc3c12` [19AE]: for the setting “read-out: mGluR1 IC50 rating”, the IC50 is below 0.02 µM.

`COc1ccnc2sc3c(=O)n(-c4ccc5c(c4)OCO5)ccc3c12` [16O]: the IC50 (read-out: mGluR1 IC50 rating) is below 0.02 µM.

As for `COc1ccnc2sc3c(=O)n(-c4ccc(C)cc4)ccc3c12` [16C], the IC50 (read-out: mGluR1 IC50) came to 0.0039 µM and the IC50 (read-out: mGluR1 IC50 rating) is below 0.02 µM.

Regarding `O=c1c2sc3nccc(NCCO)c3c2ccn1-c1ccc(Cl)cc1` [19F], the IC50 (read-out: mGluR1 IC50 rating) is below 0.02 µM.

In the case of `CCNc1ccnc2sc3c(=O)n(-c4ccc(OC)cc4F)ccc3c12` [19BG], for the setting “read-out: mGluR1 IC50 rating”, the IC50 was in the range of 0.02 to 0.1 µM.

On to `C#CCNc1ccnc2sc3c(=O)n(-c4ccc(Br)cc4)ccc3c12` [19AZ], for which the IC50 (read-out: mGluR1 IC50 rating) is below 0.02 µM.

Regarding `COc1ncnc2sc3c(=O)n(-c4ccc(Cl)cc4)ccc3c12` [23C], the half-maximal inhibitory concentration (IC50) (read-out: mGluR1 IC50 rating) was 0.02 to 0.1 µM.

For `COc1ccc(-n2ccc3c(sc4nccc(NCCCCO)c43)c2=O)cc1` [19AA], the IC50 (read-out: mGluR1 IC50 rating) lay within 0.02 to 0.1 µM.

For the compound `COc1ccnc2sc3c(=O)n(-c4ccccc4)ccc3c12` [16M], where the note is “read-out: mGluR1 IC50 rating”, the IC50 is below 0.02 µM.

With `COc1ccc(-n2ccc3c(sc4nccc(NCC(F)(F)F)c43)c2=O)cc1` [19S], the IC50 (read-out: mGluR1 IC50 rating) was 0.02 to 0.1 µM.

As to `COc1ccc(-n2ccc3c(sc4nccc(NC5CC5)c43)c2=O)cc1F` [19AV], the IC50 (read-out: mGluR1 IC50) was determined as 0.0098 µM and the IC50 (read-out: mGluR1 IC50 rating) was below 0.02 µM.

In the case of `COCCNc1ccnc2sc3c(=O)n(-c4ccc(Cl)cc4)ccc3c12` [19G], the IC50 (read-out: mGluR1 IC50 rating) lay within 0.02 to 0.1 µM.

Regarding `Cc1ccc(-n2ccc3c(sc4nccc(NCCO)c43)c2=O)cc1` [19L], the IC50 (read-out: mGluR1 IC50 rating) was 0.02 to 0.1 µM.

With `Cc1ccc(-n2ccc3c(sc4nccc(NC[C@@H](C)O)c43)c2=O)cc1` [19M], where the note is “read-out: mGluR1 IC50 rating”, the IC50 is 0.02 to 0.1 µM.
